According to patent publication US20120021117A1, “METHOD FOR PRESERVING DRINKS” (LANXESS DEUTSCHLAND GMBH, priority 2008, published 2012):
Read-outs that look alike come from different tables or passages of the source.

Legend:
[1] = Microbiological keeping time of bottled orange juice drink without sorbate (Example 3); conditions: 0.5 l PET bottles, 500 ppm limonene-containing mixture and/or 200 ppm of DMDC, visual and organoleptic inspection
From the text: The samples were thereafter regularly inspected visually and organoleptically.

Saccharomyces cerevisiae = test: Activity of DMDC, LF and their mixtures in inoculated apple juice drink, cell count after one week; format: cell-based; conditions: inoculum 375 cells/ml
Protocol: The activity of the individual components DMDC and limonene (in a formulation) and the activity of mixtures of DMDC and limonene (in a formulation) was tested against Saccharomyces cerevisiae.
For this, an apple juice drink was inoculated with 375 cells of Saccharomyces cerevisiae per ml and the active ingredient concentrations reported in Table 1 were added. In the table, DMDC is dimethyl dicarbonate, added as such.
LF was added first and then DMDC. Subsequently thereto the mixtures were thoroughly shaken and incubated at 26° C. for one week. The cell count present was then determined.

Lactobacillus brevis = test: Microbiological colony count determination in inoculated apple juice/water 1:1 after 24 hours; format: cell-based; conditions: Cell inoculum approximately 100 cells/ml; DMDC concentration not given; duplicate
[2] = orange juice drink with potassium sorbate equivalent to 100 ppm of sorbic acid, 0.5 l PET bottles; 500 ppm limonene-containing mixture and/or 200 ppm of DMDC; visual and organoleptic inspection
Protocol: Thereafter the drink was packaged directly on a drinks bottling line (10 000 l/h) into 0.5 l PET bottles.
In this case the limonene-containing mixture was added during final mixing of the drink, whereas for metering DMDC, an electromagnetic metering pump connected upstream of the filler was used.
As comparative experiment, the same drink was packaged non-preserved, or packaged treated only with DMDC or only with limonene.

| SMILES | microbiological keeping time [1] | efficacy, defined as freedom from cells (concentration, component alone) (Saccharomyces cerevisiae) | cell count determination after 24 hours (Lactobacillus brevis) | microbiological keeping time [2] |
| --- | --- | --- | --- | --- |
| COC(=O)OC(=O)OC [DMDC, dimethyl dicarbonate] | approximately 20 days | above 150 ppm | 54/75 |  |
| C/C=C/C=C/C(=O)O [sorbic acid] |  |  |  | approximately 6 days |
